Values joined by “and” are separate entries in the source; they are usually repeats but may differ in a detail not shown here. Identical values can stand only once. Like-named read-outs stand apart in the source and are kept apart here. Numbered stars: 1 amine (or outer) side, 2 acyl side, 3 side chain; on linkers, the order of the positions; unused ones are H or OH. Bridge positions count the residues as written; N and C are the ends. Square brackets hold non-standard residues; d marks the D form. Peptide text beside a SMILES is read from it. Abu(4-yl) = O=C([C@H](CC[*:3])N[*:1])[*:2]; X1 = O=C([C@@H](O)CS[*:2])[*:1]; X2 = O=C(CCC[*:2])[*:1]
How the values were obtained:
[1] = system: OXT-receptor compartment of the potassium depolarized rat myometrium; assay: Oil-immersion (stopped-transport) and washout time–response experiments on myometrium strips; conditions: for Cumulative clearance k r + κ / k r (transport rate constant between receptor compartment and aqueous medium) / κ Observed (irreversible clearance rate constant in the receptor compartment): K+-depolarized rat myometrium strip ex vivo, 30°C, arithmetic mean ± SD of computation runs; for Cumulative clearance k r + κ: washout decay phase; for k r (transport rate constant between receptor compartment and aqueous medium): from combined oil-immersion and washout data; for κ Observed (irreversible clearance rate constant in the receptor compartment): high potassium Ringer medium (Ca2+, Mg2+ 0.5 mM), oil-immersion decay phase, isometric tension, nonlinear regression; for κ (N) − κ (D): κ-difference of coherent N & D pairs, value shared by both peptides of the pair, C1,6OT/DC1,6OT pair uses predicted κ
Source text: (§1) Female virgin Sprague–Dawley rats (body weight approximately 200 g) in natural oestrus (detected by vaginal smears) were sacrificed by decapitation, both uterus horns were dissected and the perimetrium was pulled off. Their middle sections (approximately 15 mm) were longitudinally cut into 3‐ to 4‐mm strips; the endometrium (the inward layer of the horns) was removed by scraping. In average, three strips of each animal (31 rats in total) were used in the experiments.
(§2) A stripe was mounted in an adapted annealed organ chamber (17 mm × 65 mm) with a ventilation inlet tube containing 10‐ml Munsick medium (see above) and attached to an isometric force transducer. The basic tension was adjusted to 10 ± 0.2 mN (1 gf, gram‐force). Measurements were carried out at 30°C under continuous ventilation with Carbogen gas (25% O2 + 5% CO2). […] Each strip used for stimulation by a single peptide (for concentration of stimulating agents, cf. Table 2). Oil‐immersion and washout experiments were carried out on different strips from the same animal. Stimulation runs (two to four per strip) for each peptide were repeated on strips of different rat uteri.
(§3) Tonic contraction of the depolarized myometrium strips in a high potassium Ringer organ bath medium[46] (concentration of Ca^2+ and of Mg^2+: 0.5 mM) was elicited by roughly equipotent concentrations of single peptides around their D 2 values (the concentration causes the half of the maximally attainable contraction in oestrogen‐dominated myometrium). After reaching a steady‐state level (stimulation phase), the medium was exchanged by a low viscosity paraffin oil (oil‐immersion phase) or alternatively by the peptide‐free bath medium (washout phase). The time‐tension profiles of the strip were recorded by an isometric force transducer (Statham strain gauge UC3).
(§4) We employed here its modified version focused on the comparison of clearance and transport rate constants (Figure 2). It consists virtually of two distribution spaces: the receptor compartment (subscript r; see Section 4) and the external aqueous tissue medium (w). The rate of mass transport of agents through the tissue‐medium interface (transport constants k r , k w ) is directly proportional to the rate constant of diffusion k (dimension: volume/time) and inversely proportional to the respective compartment volume V r , V w : for the receptor compartment k r = k/V r , for the medium k w = k/V w . The constant κ relates to the (irreversible) clearance rate from the receptor compartment (dimension: time^−1). The rate equations determining the time response of the peptide concentrations in the corresponding compartments (c r , c w ) are then (1a) c˙w=−kcw−cr/Vw, (1b) c˙r=kcw−cr/Vr−κcr, wherein dotted symbols denote first derivatives with respect to time t: x˙≡dx/dt . • In the stimulation phase, concentration c w is expected to be constant, c w = c 0 (and c˙w=0 ) within the time interval of stimulation; the integration of Equation 1b yields (2) crt=cr,∞1−e^−kr+κt, where c r,∞ is a steady state value of c r , (3) cr,∞≡limt→∞crt=c0kr/kr+κ.
(§5) • In the wash‐out decay phase, the concentration in the external medium (c w ) is kept zero by a quick perifusion; c r,∞ is the initial value (t = 0), i.e., a c r steady state value before termination of the stimulation phase, (4) crt=cr,∞e^−kr+κt.
(§6) The sum k r + κ stands for the cumulative clearance rate constant of the peptide in the receptor compartment. • The insertion of oil (oil‐immersion decay phase) reduces the volume V w to a small residual aqueous layer v w around the tissue; obviously, v w ≪ V w and the corresponding modified mass transport rate constant kw′=k/vw is very large, limvw→0kw′=∞ .

[2] = system: OXT-receptor compartment of the potassium depolarized rat myometrium; assay: Fragmented inactivation model of GOT and DGOT (oil-immersion time–response data); assay type: in vitro ADME; conditions: for κ AM (rate constant of residual clearance) / κ c (rate constant of ester hydrolysis [Glu(OMe)^4]‐X → [Glu^4]‐X): K+-depolarized rat myometrium, oil-immersion, arithmetic mean ± SD; for κ AM (rate constant of residual clearance): assumption κ A ≈ κ M, runs in parentheses; for κ c (rate constant of ester hydrolysis [Glu(OMe)^4]‐X → [Glu^4]‐X): nonlinear regression Equation 17, number of computation runs in parentheses, 95% confidence limits in < >; for Δκ AM: difference of mean values κ AM (GOT) − κ AM (DGOT), expected rate constant of N-terminal (aminopeptidase) splitting; for Estimates of κ: κ AM + κ c: sum of fragments
Source text: This is an alternative to model represented by Equation 12b, whereε A (t), ε M (t) are response fractions of the respective primary agents and of its active metabolite(s) (16a) ε˙At=−κc+κAεAt, (16b) ε˙Mt=κcεAt−κMεMt.
Figure 6 depicts the proposed reaction scheme.
Δ α = α M /α A is the standardised biological activity (e.g., in IU/mg). Exponential constants for GOT and DGOT were obtained by the nonlinear regression analysis using numeric procedures described above and are summarized in Table 3.

[3] = rats, cited from earlier work
[4] = human, in vivo; cited from earlier work
[5] = system: OXT-receptor compartment of the potassium depolarized rat myometrium
Source text: as §1, §2, §3, §4, §5, §6

uterus = conditions: cited from earlier work

Cumulative clearance k r + κ [1] | k r (transport rate constant between receptor compartment and aqueous medium) [1] | κ Observed (irreversible clearance rate constant in the receptor compartment) [1] | κ (N) − κ (D) [1] | Compound | other results
0.278 ± 0.015 min⁻¹ | 0.158 ± 0.020 min⁻¹ | 0.118 ± 0.008 min⁻¹ | 0.076 min⁻¹ | CC[C@H](C)[C@@H]1NC(=O)[C@H](Cc2ccc(O)cc2)NC(=O)[C@@H](N)CSSC[C@@H](C(=O)N2CCC[C@H]2C(=O)N[C@@H](CC(C)C)C(=O)NNC(N)=O)NC(=O)[C@H](CC(N)=O)NC(=O)[C@H](CCC(N)=O)NC1=O [AOT, [9‐Azaglycine]‐OXT] | 
0.263 ± 0.009 min⁻¹ | 0.194 ± 0.011 min⁻¹ | 0.076 ± 0.005 min⁻¹ |  | CC[C@H](C)[C@@H]1NC(=O)[C@H](Cc2ccc(O)cc2)NC(=O)[C@@H](N)CCCC[C@@H](C(=O)N2CCC[C@H]2C(=O)N[C@@H](CC(C)C)C(=O)NCC(N)=O)NC(=O)[C@H](CC(N)=O)NC(=O)[C@H](CCC(N)=O)NC1=O [C1,6OT, [1,6‐α′,α‐diaminosuberic acid]‐OXT] | 
0.194 ± 0.033 min⁻¹ | 0.139 ± 0.044 min⁻¹ | 0.042 ± 0.015 min⁻¹ | 0.076 min⁻¹ | CC[C@H](C)[C@@H]1NC(=O)[C@H](Cc2ccc(O)cc2)NC(=O)CCSSC[C@@H](C(=O)N2CCC[C@H]2C(=O)N[C@@H](CC(C)C)C(=O)NNC(N)=O)NC(=O)[C@H](CC(N)=O)NC(=O)[C@H](CCC(N)=O)NC1=O [DAOT, [1‐β‐mercaptopropionic acid, 9‐azaglycine]‐OXT] | 
0.160 ± 0.021 min⁻¹ | 0.097 ± 0.025 min⁻¹ | 0.102 ± 0.016 min⁻¹ | 0.060 min⁻¹ | CC[C@H](C)[C@@H]1NC(=O)[C@H](Cc2ccc(O)cc2)NC(=O)CCCSC[C@@H](C(=O)N2CCC[C@H]2C(=O)N[C@@H](CC(C)C)C(=O)NCC(N)=O)NC(=O)[C@H](CC(N)=O)NC(=O)[C@H](CCC(N)=O)NC1=O [DC1OT, [1,6‐(2‐Amino‐4‐thiasuberic acid)]‐OXT] (YIQNCPLG-NH2; linker N-5 via X2) | 
0.211 ± 0.027 min⁻¹ | 0.107 ± 0.034 min⁻¹ | 0.076 ± 0.018 min⁻¹ and 0.076 min⁻¹ | 0.092 min⁻¹ | CC[C@H](C)[C@@H]1NC(=O)[C@H](Cc2ccc(O)cc2)NC(=O)CCSSC[C@@H](C(=O)N2CCC[C@H]2C(=O)N[C@@H](CC(C)C)C(=O)NCC(N)=O)NC(=O)[C@H](CC(N)=O)NC(=O)[C@H](CCC(=O)OC)NC1=O [DGOT, [1‐β‐mercaptopropionic acid, 4‐glutamic acid‐δ‐methylester]‐OXT] | κ AM (rate constant of residual clearance) [2]: 0.053 ± 0.014 (14) <0.045; 0.061> min^−1; κ c (rate constant of ester hydrolysis [Glu(OMe)^4]‐X → [Glu^4]‐X) [2]: 0.032 ± 0.011 (14) <0.025; 0.038> min^−1; Δκ AM [2]: 0.081 min⁻¹; Estimates of κ: κ AM + κ c [2]: 0.085 min⁻¹
0.267 min⁻¹ | 0.108 min⁻¹ | 0.166 min⁻¹ | 0.092 min⁻¹ | CC[C@H](C)[C@@H]1NC(=O)[C@H](Cc2ccc(O)cc2)NC(=O)[C@@H](N)CSSC[C@@H](C(=O)N2CCC[C@H]2C(=O)N[C@@H](CC(C)C)C(=O)NCC(N)=O)NC(=O)[C@H](CC(N)=O)NC(=O)[C@H](CCC(=O)OC)NC1=O [GOT, [4‐Glutamic acid‐δ‐methylester]‐OXT] | κ AM (rate constant of residual clearance) [2]: 0.134 ± 0.025 (12) <0.132; 0.135> min^−1; κ c (rate constant of ester hydrolysis [Glu(OMe)^4]‐X → [Glu^4]‐X) [2]: 0.033 ± 0.012 (22) <0.028; 0.038> min^−1; Δκ AM [2]: 0.081 min⁻¹; Estimates of κ: κ AM + κ c [2]: 0.167 min⁻¹
0.289 ± 0.010 min⁻¹ | 0.139 ± 0.012 min⁻¹ | 0.141 ± 0.008 min⁻¹ |  | CC[C@H](C)[C@@H]1NC(=O)[C@H](Cc2ccc(O)cc2)NC(=O)[C@@H](O)CSSC[C@@H](C(=O)N2CCC[C@H]2C(=O)N[C@@H](CC(C)C)C(=O)NCC(N)=O)NC(=O)[C@H](CC(N)=O)NC(=O)[C@H](CCC(N)=O)NC1=O [HOT, [1‐(2‐Hydroxy‐3‐β‐mercaptopropanoic acid)]‐OXT] (YIQNCPLG-NH2; linker N-5 via X1) | 
0.254 ± 0.028 min⁻¹ | 0.137 ± 0.030 min⁻¹ | 0.137 ± 0.025 min⁻¹ | 0.088 min⁻¹ | CC[C@H](C)[C@@H]1NC(=O)[C@H](Cc2ccc(O)cc2)NC(=O)[C@@H](N)CSSC[C@@H](C(=O)N2CCC[C@H]2C(=O)N[C@@H](CC(C)C)C(=O)NCC(N)=O)NC(=O)[C@H](CC(N)=O)NC(=O)[C@H](CCC(N)=O)NC1=O [OXT, Oxytocin, reference compound] | half‐life ([3]; regardless of gender and reproductive cycle): 1.65 min; elimination rate constant ([3]; related to the half-life of 1.65 min): 0.6 min⁻¹; half‐life in the blood plasma [4]: 1.5 to 8 min
0.272 ± 0.037 min⁻¹ | 0.116 ± 0.041 min⁻¹ | 0.162 ± 0.032 min⁻¹ | 0.060 min⁻¹ | CC[C@H](C)[C@@H]1NC(=O)[C@H](Cc2ccc(O)cc2)NC(=O)[C@@H](N)CCSC[C@@H](C(=O)N2CCC[C@H]2C(=O)N[C@@H](CC(C)C)C(=O)NCC(N)=O)NC(=O)[C@H](CC(N)=O)NC(=O)[C@H](CCC(N)=O)NC1=O [Peptide C1OT, [6,1‐Cystathionine]‐OXT] (H-[Abu(4-yl)]YIQNCPLG-NH2; thioether 1-6) | 
 |  |  |  | [6,1‐(2‐Amino‐4‐thiasuberic acid)]‐OXT [DC6OT] | Cumulative clearance k r + κ [5]: 0.147 ± 0.015 min⁻¹; κ Observed (irreversible clearance rate constant in the receptor compartment) [5]: 0.105 ± 0.008 min⁻¹
 |  |  |  | [7‐glycine]‐oxytocin | ex vivo half‐life of uterotonic response as compared with oxytocin (uterus): considerably shorter half‐life

Compound | Cumulative clearance k r + κ [1] | k r (transport rate constant between receptor compartment and aqueous medium) [1] | κ Observed (irreversible clearance rate constant in the receptor compartment) [1] | κ (N) − κ (D) [1] | other results
CC[C@H](C)[C@@H]1NC(=O)[C@H](Cc2ccc(O)cc2)NC(=O)CCSSC[C@@H](C(=O)N2CCC[C@H]2C(=O)N[C@@H](CC(C)C)C(=O)NCC(N)=O)NC(=O)[C@H](CC(N)=O)NC(=O)[C@H](CCC(N)=O)NC1=O [DOT, [1‐β‐mercaptopropionic acid]‐OXT] | 0.176 ± 0.024 min⁻¹ | 0.149 ± 0.026 min⁻¹ | 0.049 ± 0.021 min⁻¹ | 0.088 min⁻¹ | 
